The structures appear in SMILES notation.

From paper PMC9330179 (ACS Omega, 2022) come the findings set out here.

What all share (assay type): biochemical
Experiment [1] addresses T1, cathepsin B (Homo sapiens, UniProt P07858).
Another experiment concerns the target cathepsin V (Homo sapiens, UniProt O60911). The experiment can be described thus: protease activity at a single dose. The conditions noted are these: read-out: GER-24 (50 μM) % control activity (100%, no inhibitor).
Another experiment deals with cathepsin S (Homo sapiens, UniProt P25774). The experiment can be described thus: protease activity at a single dose. To be noted: read-out: GER-24 (50 μM) % control activity (100%, no inhibitor).
Chain of cathepsin S (P25774 115-331): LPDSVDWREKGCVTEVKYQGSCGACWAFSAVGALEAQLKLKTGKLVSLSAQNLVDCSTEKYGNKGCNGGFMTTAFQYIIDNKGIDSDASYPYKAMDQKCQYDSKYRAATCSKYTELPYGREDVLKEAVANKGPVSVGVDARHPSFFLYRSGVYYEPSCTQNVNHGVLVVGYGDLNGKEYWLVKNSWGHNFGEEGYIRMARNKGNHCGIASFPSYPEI
Experiment [2] has as its target T1, cathepsin B. The experiment can be described thus: fluorogenic Z-Glu-Lys-AMC assay at pH […], IC50.
The next experiment concerns the target cathepsin H (Homo sapiens, UniProt P09668). The experiment can be described thus: protease activity at a single dose. The conditions noted are these: read-out: GER-24 (50 μM) % control activity (100%, no inhibitor).
Another experiment deals with T2, cathepsin K (Homo sapiens, UniProt P43235).
T2 sequence (P43235 115-329): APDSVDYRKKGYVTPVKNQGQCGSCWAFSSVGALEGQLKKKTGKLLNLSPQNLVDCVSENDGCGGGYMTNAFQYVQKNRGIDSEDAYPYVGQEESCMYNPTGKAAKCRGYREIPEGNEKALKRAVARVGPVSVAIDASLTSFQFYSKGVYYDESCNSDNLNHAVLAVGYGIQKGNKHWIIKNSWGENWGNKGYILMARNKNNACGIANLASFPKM
As to the kind of experiment: protease activity at a single dose. To be noted: read-out: GER-24 (50 μM) % control activity (100%, no inhibitor).

Chain of cathepsin V (O60911 114-334): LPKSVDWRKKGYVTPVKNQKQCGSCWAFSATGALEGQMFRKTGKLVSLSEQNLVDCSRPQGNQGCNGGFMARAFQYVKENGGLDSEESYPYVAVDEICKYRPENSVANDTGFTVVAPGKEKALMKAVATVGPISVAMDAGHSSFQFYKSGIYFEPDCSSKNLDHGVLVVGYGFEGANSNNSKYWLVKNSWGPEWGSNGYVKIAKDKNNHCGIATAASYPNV
Chain of cathepsin H (P09668 116-335, other chains not shown): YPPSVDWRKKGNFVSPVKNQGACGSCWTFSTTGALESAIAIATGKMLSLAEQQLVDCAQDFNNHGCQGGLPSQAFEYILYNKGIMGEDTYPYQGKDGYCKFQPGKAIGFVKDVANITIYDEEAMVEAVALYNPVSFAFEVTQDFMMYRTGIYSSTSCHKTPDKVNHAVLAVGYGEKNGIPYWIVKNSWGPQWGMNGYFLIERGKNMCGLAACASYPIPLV

The Ki is the equilibrium dissociation constant of an inhibitor or competing ligand from its target. Low readings indicate a stronger hold on the target, high ones a looser hold on the target. The molecule `O=S(=O)(O)Oc1ccc(Oc2cc(Br)c(Oc3ccc(OS(=O)(=O)O)c(Oc4ccc(Br)cc4Br)c3Br)c(Oc3ccc(Br)cc3Br)c2)cc1Br` [GER-12, Crossbyanol B] registered a Ki on cathepsin B [1] of 1.4 µM.
As usually defined, the IC50 is the concentration at which inhibition is half-maximal. On to `CCCCC/C=C\C/C=C\C=C/C#CCCCC(=O)O` [GER-24, (7Z,9Z,12Z)-octadeca-7,9,12-trien-5-ynoic acid], for which the remaining activity at 50 µM at cathepsin V is 17%; on cathepsin S, 0%; at cathepsin H, 21%; on cathepsin K it was 7%. On cathepsin B [2], the midpoint of inhibition, the IC50, lay at 16 µM.
